According to patent US20150259300A1, “4-(ORTHO)-FLUOROPHENYL-5-FLUOROPYRIMIDIN-2-YL AMINES CONTAINING A SULFONE GROUP” (BAYER PHARMA AKTIENGESELLSCHAFT, priority 2012, published 2015):

Assays:
CDK2/CycE = target: T1, CDK2/CycE (Homo sapiens, UniProt P24941); test: CDK2/CycE kinase assay (TR-FRET, Method 2); type: biochemical; conditions: Method 2, 10 μM ATP
T1 construct: GST; purchased ProQinase GmbH (Freiburg, Germany); host or cells: insect cells (Sf9)
Source text: 2. CDK2/CycE Kinase Assay:
CDK2/CycE -inhibitory activity of compounds of the present invention was quantified employing the CDK2/CycE TR-FRET assay as described in the following paragraphs:
Recombinant fusion proteins of GST and human CDK2 and of GST and human CycE, expressed in insect cells (Sf9) and purified by Glutathion-Sepharose affinity chromatography, were purchased from ProQinase GmbH (Freiburg, Germany). As substrate for the kinase reaction biotinylated peptide biotin-Ttds-YISPLKSPYKISEG (C-terminus in amid form) was used which can be purchased e.g. form the company JERINI Peptide Technologies (Berlin, Germany).
(§1) For the assay 50 nl of a 100 fold concentrated solution of the test compound in DMSO was pipetted into a black low volume 384 well microtiter plate (Greiner Bio-One, Frickenhausen, Germany), 2 μl of a solution of CDK2/CycE in aqueous assay buffer [50 mM Tris/HCl pH 8.0, 10 mM MgCl2, 1.0 mM dithiothreitol, 0.1 mM sodium ortho-vanadate, 0.01% (v/v) Nonidet-P40 (Sigma)] were added and the mixture was incubated for […] at 22° C. to allow pre-binding of the test compounds to the enzyme before the start of the kinase reaction. Then the kinase reaction was started by the addition of 3 μl of a solution of adenosine-tri-phosphate (ATP, 16.7 μM=>final conc. in the 5 μl assay volume is 10 μM) and substrate (1.25 μM=>final conc. in the 5 μl assay volume is 0.75 μM) in assay buffer and the resulting mixture was incubated for a reaction time of […] at 22° C. The concentration of CDK2/CycE was adjusted depending of the activity of the enzyme lot and was chosen appropriate to have the assay in the linear range, typical concentrations were in the range of 130 ng/ml. The reaction was stopped by the addition of 5 μl of a solution of TR-FRET detection reagents (0.2 μM streptavidine-XL665 [Cisbio Bioassays, Codolet, France] and 1 nM anti-RB(pSer807/pSer811)-antibody from BD Pharmingen [#558389] and 1.2 nM LANCE EU-W1024 labeled anti-mouse IgG antibody [Perkin-Elmer, product no. AD0077]) in an aqueous EDTA-solution (100 mM EDTA, 0.2% (w/v) bovine serum albumin in 100 mM HEPES/NaOH pH 7.0).
(§2) The resulting mixture was incubated 1 h at 22° C. to allow the formation of complex between the phosphorylated biotinylated peptide and the detection reagents. Subsequently the amount of phosphorylated substrate was evaluated by measurement of the resonance energy transfer from the Eu-chelate to the streptavidine-XL. Therefore, the fluorescence emissions at 620 nm and 665 nm after excitation at 350 nm was measured in a TR-FRET reader, e.g. a Rubystar (BMG Labtechnologies, Offenburg, Germany) or a Viewlux (Perkin-Elmer). The ratio of the emissions at 665 nm and at […] was taken as the measure for the amount of phosphorylated substrate. The data were normalised (enzyme reaction without inhibitor=0% inhibition, all other assay components but no enzyme=100% inhibition).

CDK9/CycT1 = target: T2, CDK9/CycT1 (Homo sapiens, UniProt P50750); test: CDK9/CycT1 high ATP kinase assay (TR-FRET, Method 1b); type: biochemical; conditions: 2 mM ATP
T2 construct: Recombinant full-length His-tagged human CDK9 and CycT1; His; purchased Invitrogen PV4131; host or cells: insect cells
Description: 1b. CDK9/CyeT1 High ATP Kinase Assay
CDK9/CycT1-inhibitory activity of compounds of the present invention at a high ATP concentration after preincubation of enzyme and test compounds was quantified employing the CDK9/CycT1 TR-FRET assay as described in the following paragraphs.
Recombinant full-length His-tagged human CDK9 and CycT1, expressed in insect cells and purified by Ni-NTA affinity chromatography, were purchase from Invitrogen (Cat. No PV4131). As substrate for the kinase reaction biotinylated peptide biotin-Ttds-YISPLKSPYKISEG (C-terminus in amid form) was used which can be purchased e.g. form the company JERINI peptide technologies (Berlin, Germany).
as §1, with “of CDK9/CycT1” for “of CDK2/CycE”, “(ATP, 3.3 mM=>final conc. in the 5 μl assay volume is 2 mM) and substrate (1.67” for “(ATP, 16.7”, “is 1” for “is 10 μM) and substrate (1.25 μM=>final conc. in the 5 μl assay volume is 0.75”, “of 0.5” for “of 130”, “([…]” for “(0.2 μM”
as §2, with “HTRF” for “TR-FRET”

T2 sequence (P50750 whole entry): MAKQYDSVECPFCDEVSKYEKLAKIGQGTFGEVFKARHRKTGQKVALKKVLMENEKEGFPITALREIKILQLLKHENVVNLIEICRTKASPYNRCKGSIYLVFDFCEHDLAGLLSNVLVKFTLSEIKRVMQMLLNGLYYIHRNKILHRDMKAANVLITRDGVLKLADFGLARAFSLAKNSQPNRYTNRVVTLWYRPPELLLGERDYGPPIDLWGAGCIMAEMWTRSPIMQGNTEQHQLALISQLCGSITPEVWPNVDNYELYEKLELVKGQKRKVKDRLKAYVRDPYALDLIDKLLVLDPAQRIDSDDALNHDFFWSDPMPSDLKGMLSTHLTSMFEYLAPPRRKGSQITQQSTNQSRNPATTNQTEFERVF
T2 sequence (O60563 whole entry partner): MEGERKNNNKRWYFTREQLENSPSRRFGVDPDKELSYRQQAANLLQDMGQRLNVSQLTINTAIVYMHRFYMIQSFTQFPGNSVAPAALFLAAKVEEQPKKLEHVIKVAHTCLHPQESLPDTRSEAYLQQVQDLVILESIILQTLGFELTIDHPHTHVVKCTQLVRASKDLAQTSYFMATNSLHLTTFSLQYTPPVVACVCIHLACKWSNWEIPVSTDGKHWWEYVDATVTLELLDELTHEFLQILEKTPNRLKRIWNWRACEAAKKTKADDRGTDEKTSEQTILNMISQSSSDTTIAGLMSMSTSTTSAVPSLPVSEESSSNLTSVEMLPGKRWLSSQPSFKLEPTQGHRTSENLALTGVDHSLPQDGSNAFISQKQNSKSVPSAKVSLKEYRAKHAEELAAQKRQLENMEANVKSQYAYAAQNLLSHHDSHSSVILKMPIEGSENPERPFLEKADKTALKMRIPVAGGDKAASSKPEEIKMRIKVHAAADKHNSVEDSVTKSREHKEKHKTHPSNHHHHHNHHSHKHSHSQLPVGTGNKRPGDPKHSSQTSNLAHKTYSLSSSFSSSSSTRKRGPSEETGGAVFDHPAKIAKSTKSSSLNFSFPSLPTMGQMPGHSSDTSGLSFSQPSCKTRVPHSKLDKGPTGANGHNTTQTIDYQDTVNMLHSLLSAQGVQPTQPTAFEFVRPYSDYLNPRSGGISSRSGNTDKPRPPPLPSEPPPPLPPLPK

SMILES | IC50 (CDK2/CycE) [nM] | IC50 (CDK9/CycT1) [nM]
CC(C)S(=O)(=O)Cc1cccc(Nc2ncc(F)c(-c3ccc(F)cc3F)n2)c1 [Example 2, 4-(2,4-Difluorophenyl)-5-fluoro-N-{3-[(propan-2-ylsulfonyl)methyl]phenyl}pyrimidin-2-amine] | 1200 | 2260
CC(C)(C)S(=O)(=O)Cc1cccc(Nc2ncc(F)c(-c3ccc(F)cc3F)n2)c1 [Example 3, N-{3-[(tert-Butylsulfonyl)methyl]phenyl}-4-(2,4-difluorophenyl)-5-fluoropyrimidin-2-amine] | 1000 | 14500
COCCS(=O)(=O)Cc1cccc(Nc2ncc(F)c(-c3ccc(F)cc3F)n2)c1 [Example 4, 4-(2,4-Difluorophenyl)-5-fluoro-N-(3-{[(2-methoxyethyl)sulfonyl]methyl}phenyl)pyrimidin-2-amine] | 2600 | 2260
CS(=O)(=O)Cc1cccc(Nc2ncc(F)c(-c3ccc(F)cc3F)n2)c1 [Example 5, 4-(2,4-Difluorophenyl)-5-fluoro-N-{3-[(methylsulfonyl)methyl]phenyl}pyrimidin-2-amine] | 470 | 858
CS(=O)(=O)Cc1cc(Nc2ncc(F)c(-c3ccc(F)cc3F)n2)cc(S(F)(F)(F)(F)F)c1 [Example 6, 4-(2,4-Difluorophenyl)-5-fluoro-N-{3-[(methylsulfonyl)methyl]-5-(pentafluoro-λ^6-sulfanyl)phenyl}pyrimidin-2-amine] | 1760 | 99
CCCS(=O)(=O)Cc1cccc(Nc2ncc(F)c(-c3ccc(F)cc3F)n2)c1 [Example 8, 4-(2,4-difluorophenyl)-5-fluoro-N-{3-[(propylsulfonyl)methyl]phenyl}pyrimidin-2-amine] | 570 | 904
O=S(=O)(Cc1cccc(Nc2ncc(F)c(-c3ccc(F)cc3F)n2)c1)C1CC1 [Example 9, N-{3-[(Cyclopropylsulfonyl)methyl]phenyl}-4-(2,4-difluorophenyl)-5-fluoropyrimidin-2-amine] | 410 | 330
CS(=O)(=O)Cc1cc(F)cc(Nc2ncc(F)c(-c3ccc(F)cc3F)n2)c1 [Example 10, 4-(2,4-Difluorophenyl)-5-fluoro-N-{3-fluoro-5-[(methylsulfonyl)methyl]phenyl}pyrimidin-2-amine] | 5800 | 2280
CS(=O)(=O)Cc1cc(F)cc(Nc2ncc(F)c(-c3cc(F)c(F)cc3F)n2)c1 [Example 11, 5-Fluoro-N-{3-fluoro-5-[(methylsulfonyl)methyl]phenyl}-4-(2,4,5-trifluorophenyl)pyrimidin-2-amine] | > 20000 | > 20000
CS(=O)(=O)Cc1cc(F)cc(Nc2ncc(F)c(-c3ccc(F)c(F)c3F)n2)c1 [Example 12, 5-fluoro-N-{3-fluoro-5-[(methylsulfonyl)methyl]phenyl}-4-(2,3,4-trifluorophenyl)pyrimidin-2-amine] | 350 | 271
CCCS(=O)(=O)Cc1cc(F)cc(Nc2ncc(F)c(-c3ccc(F)cc3F)n2)c1 [Example 13, 4-(2,4-Difluorophenyl)-5-fluoro-N-{3-fluoro-5-[(propylsulfonyl)methyl]phenyl}pyrimidin-2-amine] | 580 | 2280
